Reference: patent publication US8436027B2, “Azole compounds used as tuberculostatic and leishmanicide agents” (priority 2005, dated 2013)
Several values for one entry are separate records, joined by “and”; a condition that tells them apart may be missing. Equal entries are not always repeated.

How the values were obtained:
[1] = system: Mycobacterium tuberculosis H37Rv (ATCC-27294); assay: MIC by MABA (Microplate Alamar Blue Assay), antimicrobial activity; assay type: cell-based; details: M. tuberculosis H37Rv (ATCC 27294); for MIC: MABA, 5 days incubation + 24 h Alamar Blue; for Inhibition (%): concentration not given
[2] = system: promastigote forms of Leishmania amazonensis; assay: Leishmanicide evaluation in vitro, live parasites counted by fluorescence; assay type: cell-based; details: for Percentage of parasitic inhibition: L. amazonensis promastigotes; for leishmanicide activity (inhibition): Table 6
Procedure: The evaluation of the Leishmanicide activity of the type I and II 1,2,3-triazole derivatives was made through in vitro essays against promastigote forms of Leishmania amazonensis, and after the incubation with compounds, live parasites are counted by fluorescence, thus obtaining as a result, the percentage of inhibition of the compounds evaluated.
Essays were performed in triplicate using pentamidine as a positive pattern with a 160 μg/mL concentration.
The evaluation of the leishmanicide activity of type I (Formula XII) and II (Formula XIII) imidazole derivatives was performed through in vitro essays against promastigote forms of Leishmania amazonensis, and after the incubation with compounds, live parasites are counted by fluorescence, thus obtaining as a result the inhibition percentage of the evaluated compounds.
Essays were performed in triplicate using pentamidine as a positive pattern with a 160 μg/mL concentration, determining which compounds evaluated inhibited the parasite in lower concentrations and the percentage higher than the pattern. Table 6 lists the results obtained in the leishmanicide evaluation of derivatives 140a 148a 146a, 149a.

M. tuberculosis = details: background statement; cited from earlier work

Clc1ccc(/N=C/c2cn(-c3ccc(Cl)cc3)nn2)cc1 [compound 119, (E)-4-chloride-N-((1-(4-chlorophenyl)-1H-1,2,3-triazole-4-il)methylene)benzenamine]
MIC [1]: 40 µg/mL

O=Cc1cn(-c2cccc(Cl)c2)nn1 [114f, 4-carboxaldehyde-1-(3-chlorophenyl)-1H-1,2,3-triazole]
Percentage of parasitic inhibition ([2]; Concentration 20 μg/mL): No inhibition

N#Cc1cccc(-n2cc(C=O)nn2)c1 [114h, 4-carboxaldehyde-1-(3-cyanophenyl)-1H-1,2,3-triazole]
MIC [1]: 20.0 µg/mL

COc1ccc(-n2cc(C=O)nn2)cc1 [114d, 4-carboxaldehyde-1-(4-methoxyphenyl)-1H-1,2,3-triazole]
MIC [1]: 10.0 µg/mL
Inhibition (%) [1]: 100%

N#Cc1ccc(-n2cc(C=O)nn2)cc1 [114i, 4-carboxaldehyde-1-(4-cyanophenyl)-1H-1,2,3-triazole]
MIC [1]: 5.0 µg/mL

O=Cc1cn(-c2ccc(Br)cc2)nn1 [114b, 4-carboxaldehyde-1-(4-bromophenyl)-1H-1,2,3-triazole]
MIC [1]: 5.0 µg/mL
Inhibition (%) [1]: 100%

COc1ccc(-n2cc(C=O)nn2)cc1OC [114m, 4-carboxaldehyde 1-(3,4-dimethoxyphenyl)-1H-1,2,3-triazole]
MIC [1]: 80.0 µg/mL

N=C(N)c1ccc(OCCCCCOc2ccc(C(=N)N)cc2)cc1 [pentamidine]
leishmanicide activity (inhibition) ([2]; Conc. 5 μ/mL): No inhibition
leishmanicide activity (inhibition) ([2]; Conc. 10 μ/mL): No inhibition
leishmanicide activity (inhibition) ([2]; Conc. 20 μ/mL): No inhibition
leishmanicide activity (inhibition) ([2]; Conc. 80 μ/mL): No inhibition
Percentage of parasitic inhibition ([2]; Concentration 5 μg/mL): No inhibition
Percentage of parasitic inhibition ([2]; Concentration 10 μg/mL): No inhibition
Percentage of parasitic inhibition ([2]; Concentration 20 μg/mL): No inhibition
Percentage of parasitic inhibition ([2]; Concentration 80 μg/mL): No inhibition

O=Cc1cn(-c2ccc([N+](=O)[O-])cc2)nn1 [114j, 4-carboxaldehyde-1-(4-nitrophenyl)-1H-1,2,3-triazole]
MIC [1]: 20.0 µg/mL

Brc1ccc(/N=C/c2cn(-c3ccc(Br)cc3)nn2)cc1 [compound 120, (E)-4-bromo-N-((1-(4-bromophenyl)-1H-1,2,3-triazole-4-il)methylene)benzenamine]
MIC [1]: 20 µg/mL

COc1ccccc1-n1cc(C=O)nn1 [114l, 4-carboxaldehyde-1-(2-methoxyphenyl)-1H-1,2,3-triazole]
MIC [1]: 40.0 µg/mL
Inhibition (%) [1]: 94%

FC(F)c1cn(-c2ccc(Cl)cc2)nn1 [121a, 1-(4-chlorophenyl)-4-difluoromethyl-1H-1,2,3-triazole]
MIC [1]: 40.0 µg/mL

O=Cc1cn(-c2ccc(Cl)cc2)nn1 [114a, 4-carboxaldehyde-1-(4-chlorophenyl)-1H-1,2,3-triazole]
MIC [1]: 5 µg/mL and 5.0 µg/mL

O=Cc1cn(-c2cc(Cl)cc(Cl)c2)nn1 [114g, 4-carboxaldehyde-1-(3,5-dichlorophenyl)-1H-1,2,3-triazole]
MIC [1]: 2.5 µg/mL

Cc1ccc(-n2cc(C=O)nn2)cc1 [114c, 4-carboxaldehyde-1-(4-methylphenyl)-1H-1,2,3-triazole]
MIC [1]: 2.5 µg/mL
Inhibition (%) [1]: 100%

COc1ccc(OC)c(-n2cc(C=O)nn2)c1 [114e, 4-carboxaldehyde-1-(2,5-dimethoxyphenyl)-1H-1,2,3-triazole]
MIC [1]: 80.0 µg/mL
Inhibition (%) [1]: 59%

NNC(=O)c1ccncc1 [INH, isoniazide]
minimum inhibitory concentration (MIC) (M. tuberculosis): 0.02 to 0.06 µg/mL

O=[N+]([O-])c1ccc(-n2cc(C(F)F)nn2)cc1 [121j, 1-(4-nitrophenyl)-4-difluoromethyl-1H-1,2,3-triazole]
MIC [1]: 40.0 µg/mL
